What was measured:
Format in all cases: in vivo, human
Total cholesterol = test: Clinical trial: serum total cholesterol of IHD patients under therapy; details: patient serum; for cholesterol lowering effect (in words): therapy administered for 8 weeks
From the text: (§1) A group of […] patients were selected for therapy to alter lipid metabolism relative to a control group of 20 ‘matched’patients who were not treated (Patient Control Group).
(§2) The therapy group comprised 23 male and 7 female patients with an average age of 55±1.1 years. The patient control group was comprised of 20 patients with IHD, of which 15 were male and 5 were female with an average age of 53±1.2 years. Each patient gave written consent for his/her participation in the trial.
(§3) All patients had angina of II-III class of Canadian Cardiological Society classification. […] IHD diagnosis for the other 15 patients with a recent history of unstable angina in the first group and 10 in the patient control group was confirmed by coronary angiography, which detected 70% or more of arterial stenosis.
(§4) Apart from the degree of generalization or severity of atherosclerosis, all groups were matched not only in age, gender and risk factors but also in medication, nitrates, β-blockers, angiotensin-converting enzyme inhibitors etc.
(§5) Each therapy was administered for 8 weeks. The blood of the patients of all four groups was tested every two weeks.

Triglycerides = test: Clinical trial: serum triglycerides of IHD patients under therapy; details: patient serum
From the text: as §1, §2
(§6) All patients had angina of II-III class of Canadian Cardiological Society classification.
as §4, §5

ApoB = test: Clinical trial: serum Apo-B (immuno-turbometric assay); details: patient serum
From the text: as §1, §2, §3, §4, §5
(§7) The level of LDL was estimated in two independent parameters: LDL-cholesterol measured by combination of enzymatic and immunologic assays, and Apo-B measured by immuno-turbometric assay. These assays were performed using commercially available kits which include goat anti-human apo-B polyclonals (LDL-Direct™, Randox Labs Ltd UK, EZ LDL™ Cat No-358-A, Sigma UK).

ApoA = test: Clinical trial: serum ApoA of IHD patients under therapy; details: patient serum
From the text: as §1, §2, §6, §4, §5

LDL cholesterol = test: Clinical trial: serum LDL-cholesterol (enzymatic and immunologic assays); details: patient serum
From the text: as §1, §2, §6, §4, §5, §7

`CC[C@H]1OC(=O)[C@H](C)[C@@H](O[C@H]2C[C@@](C)(OC)[C@@H](O)[C@H](C)O2)[C@H](C)[C@@H](O[C@@H]2O[C@H](C)C[C@H](N(C)C)[C@H]2O)[C@](C)(O)C[C@@H](C)CN(C)[C@H](C)[C@@H](O)[C@]1(C)O` [Group A, azithromycin] was tested. Which Total cholesterol (Total cholesterol; 1 month after treatment) did it give?
Its Total cholesterol is 197 mg/dL.

And the “Total cholesterol (% of before-treatment value)” value (Total cholesterol; 1 month after treatment)?
Its value is 96%.

And the Total cholesterol (Total cholesterol; 2 months after treatment)?
Its Total cholesterol is 196 mg/dL.

What about the “Total cholesterol (% of before-treatment value)” value (Total cholesterol; 2 months after treatment) of the same compound?
Its value is 96%.

And the Total cholesterol (Total cholesterol; 3 months after treatment)?
The Total cholesterol was 198 mg/dL.

What about the “Total cholesterol (% of before-treatment value)” value (Total cholesterol; 3 months after treatment) of the same compound?
The value was 97%.

And the Total cholesterol (Total cholesterol; Treatment 4 weeks)?
The Total cholesterol was 186 mg/dL.

And the “Total cholesterol (% of before-treatment value)” value (Total cholesterol; Treatment 4 weeks)?
The value was 91%.

And the Total cholesterol (Total cholesterol; Treatment 6 weeks)?
Its Total cholesterol is 190 mg/dL.

And the “Total cholesterol (% of before-treatment value)” value (Total cholesterol; Treatment 6 weeks)?
Its value is 93%.

What about the Total cholesterol (Total cholesterol; Treatment 8 weeks) of the same compound?
The Total cholesterol was 191 mg/dL.

What about the “Total cholesterol (% of before-treatment value)” value (Total cholesterol; Treatment 8 weeks) of the same compound?
Its value is 93%.

And the “cholesterol lowering effect (in words)” value (Total cholesterol)?
Its value is “no cholesterol lowering effect”.

And the Triglycerides (Triglycerides; 1 month after treatment)?
Its Triglycerides is 106 mg/dL.

And the “Triglycerides (% of before-treatment value)” value (Triglycerides; 1 month after treatment)?
The value was 91%.

And the Triglycerides (Triglycerides; 2 months after treatment)?
Its Triglycerides is 118 mg/dL.

What about the “Triglycerides (% of before-treatment value)” value (Triglycerides; 2 months after treatment) of the same compound?
The value was 101%.

And the Triglycerides (Triglycerides; 3 months after treatment)?
The Triglycerides was 109 mg/dL.

And the “Triglycerides (% of before-treatment value)” value (Triglycerides; 3 months after treatment)?
Its value is 93%.

And the Triglycerides (Triglycerides; Treatment 4 weeks)?
The Triglycerides was 112 mg/dL.

And the “Triglycerides (% of before-treatment value)” value (Triglycerides; Treatment 4 weeks)?
The value was 96%.

And the Triglycerides (Triglycerides; Treatment 6 weeks)?
Its Triglycerides is 101 mg/dL.

What about the “Triglycerides (% of before-treatment value)” value (Triglycerides; Treatment 6 weeks) of the same compound?
Its value is 86%.

What about the Triglycerides (Triglycerides; Treatment 8 weeks) of the same compound?
The Triglycerides was 99 mg/dL.

What about the “Triglycerides (% of before-treatment value)” value (Triglycerides; Treatment 8 weeks) of the same compound?
Its value is 85%.

What about the ApoB (ApoB; 1 month after treatment) of the same compound?
Its ApoB is 115 mg/dL.

What about the “ApoB (% of before-treatment value)” value (ApoB; 1 month after treatment) of the same compound?
The value was 92%.

And the ApoB (ApoB; 2 months after treatment)?
The ApoB was 133 mg/dL.

What about the “ApoB (% of before-treatment value)” value (ApoB; 2 months after treatment) of the same compound?
The value was 106%.

What about the ApoB (ApoB; 3 months after treatment) of the same compound?
Its ApoB is 131 mg/dL.

What about the “ApoB (% of before-treatment value)” value (ApoB; 3 months after treatment) of the same compound?
Its value is 105%.

And the ApoB (ApoB; Treatment 4 weeks)?
Its ApoB is 109 mg/dL.

What about the “ApoB (% of before-treatment value)” value (ApoB; Treatment 4 weeks) of the same compound?
The value was 87%.

What about the ApoB (ApoB; Treatment 6 weeks) of the same compound?
Its ApoB is 110 mg/dL.

And the “ApoB (% of before-treatment value)” value (ApoB; Treatment 6 weeks)?
Its value is 88%.

What about the ApoB (ApoB; Treatment 8 weeks) of the same compound?
Its ApoB is 113 mg/dL.

And the “ApoB (% of before-treatment value)” value (ApoB; Treatment 8 weeks)?
Its value is 90%.

And the ApoA (ApoA; 1 month after treatment)?
The ApoA was 145 mg/dL.

And the “ApoA (% of before-treatment value)” value (ApoA; 1 month after treatment)?
The value was 90%.

What about the ApoA (ApoA; 2 months after treatment) of the same compound?
The ApoA was 162 mg/dL.

What about the “ApoA (% of before-treatment value)” value (ApoA; 2 months after treatment) of the same compound?
Its value is 101%.

What about the ApoA (ApoA; 3 months after treatment) of the same compound?
Its ApoA is 161 mg/dL.

And the “ApoA (% of before-treatment value)” value (ApoA; 3 months after treatment)?
The value was 100%.

And the ApoA (ApoA; Treatment 4 weeks)?
Its ApoA is 142 mg/dL.

What about the “ApoA (% of before-treatment value)” value (ApoA; Treatment 4 weeks) of the same compound?
Its value is 88%.

And the ApoA (ApoA; Treatment 6 weeks)?
Its ApoA is 143 mg/dL.

What about the “ApoA (% of before-treatment value)” value (ApoA; Treatment 6 weeks) of the same compound?
Its value is 89%.

And the ApoA (ApoA; Treatment 8 weeks)?
Its ApoA is 141 mg/dL.

What about the “ApoA (% of before-treatment value)” value (ApoA; Treatment 8 weeks) of the same compound?
The value was 88%.

And the LDL cholesterol (LDL cholesterol; 1 month after treatment)?
Its LDL cholesterol is 44 mg/dL.

What about the “LDL cholesterol (% of before-treatment value)” value (LDL cholesterol; 1 month after treatment) of the same compound?
Its value is 129%.

What about the LDL cholesterol (LDL cholesterol; 2 months after treatment) of the same compound?
The LDL cholesterol was 41 mg/dL.

And the “LDL cholesterol (% of before-treatment value)” value (LDL cholesterol; 2 months after treatment)?
Its value is 121%.

What about the LDL cholesterol (LDL cholesterol; 3 months after treatment) of the same compound?
Its LDL cholesterol is 40 mg/dL.

What about the “LDL cholesterol (% of before-treatment value)” value (LDL cholesterol; 3 months after treatment) of the same compound?
The value was 118%.

What about the LDL cholesterol (LDL cholesterol; Treatment 4 weeks) of the same compound?
Its LDL cholesterol is 37 mg/dL.

What about the “LDL cholesterol (% of before-treatment value)” value (LDL cholesterol; Treatment 4 weeks) of the same compound?
The value was 109%.

What about the LDL cholesterol (LDL cholesterol; Treatment 6 weeks) of the same compound?
Its LDL cholesterol is 38 mg/dL.

And the “LDL cholesterol (% of before-treatment value)” value (LDL cholesterol; Treatment 6 weeks)?
Its value is 112%.

And the LDL cholesterol (LDL cholesterol; Treatment 8 weeks)?
The LDL cholesterol was 39 mg/dL.

What about the “LDL cholesterol (% of before-treatment value)” value (LDL cholesterol; Treatment 8 weeks) of the same compound?
The value was 115%.

For `CC(=O)Oc1ccccc1C(=O)O` [Group D, acetylsalicylic acid], which Total cholesterol (Total cholesterol; 1 month after treatment) is on record?
The Total cholesterol was 221 mg/dL.

What about the “Total cholesterol (% of before-treatment value)” value (Total cholesterol; 1 month after treatment) of the same compound?
Its value is 87%.

And the Total cholesterol (Total cholesterol; 2 months after treatment)?
The Total cholesterol was 223 mg/dL.

What about the “Total cholesterol (% of before-treatment value)” value (Total cholesterol; 2 months after treatment) of the same compound?
The value was 88%.

What about the Total cholesterol (Total cholesterol; 3 months after treatment) of the same compound?
Its Total cholesterol is 234 mg/dL.

And the “Total cholesterol (% of before-treatment value)” value (Total cholesterol; 3 months after treatment)?
The value was 92%.

What about the Total cholesterol (Total cholesterol; Treatment 2 weeks) of the same compound?
Its Total cholesterol is 233 mg/dL.

What about the “Total cholesterol (% of before-treatment value)” value (Total cholesterol; Treatment 2 weeks) of the same compound?
The value was 92%.

What about the Total cholesterol (Total cholesterol; Treatment 4 weeks) of the same compound?
The Total cholesterol was 210 mg/dL.

And the “Total cholesterol (% of before-treatment value)” value (Total cholesterol; Treatment 4 weeks)?
The value was 83%.

And the “cholesterol lowering effect (in words)” value (Total cholesterol)?
Its value is “no cholesterol lowering effect”.

What about the Triglycerides (Triglycerides; 1 month after treatment) of the same compound?
The Triglycerides was 146 mg/dL.

And the “Triglycerides (% of before-treatment value)” value (Triglycerides; 1 month after treatment)?
Its value is 126%.

And the Triglycerides (Triglycerides; 2 months after treatment)?
Its Triglycerides is 128 mg/dL.

And the Triglycerides (Triglycerides; 3 months after treatment)?
Its Triglycerides is 134 mg/dL.

What about the Triglycerides (Triglycerides; Treatment 2 weeks) of the same compound?
Its Triglycerides is 152 mg/dL.

What about the “Triglycerides (% of before-treatment value)” value (Triglycerides; Treatment 2 weeks) of the same compound?
Its value is 131%.

What about the Triglycerides (Triglycerides; Treatment 4 weeks) of the same compound?
The Triglycerides was 111 mg/dL.

And the “Triglycerides (% of before-treatment value)” value (Triglycerides; Treatment 4 weeks)?
Its value is 96%.

What about the ApoB (ApoB; 1 month after treatment) of the same compound?
Its ApoB is 131 mg/dL.

And the “ApoB (% of before-treatment value)” value (ApoB; 1 month after treatment)?
Its value is 106%.

What about the ApoB (ApoB; 2 months after treatment) of the same compound?
The ApoB was 142 mg/dL.

And the “ApoB (% of before-treatment value)” value (ApoB; 2 months after treatment)?
Its value is 114%.

What about the ApoB (ApoB; 3 months after treatment) of the same compound?
The ApoB was 111 mg/dL.

What about the “ApoB (% of before-treatment value)” value (ApoB; 3 months after treatment) of the same compound?
Its value is 90%.

What about the ApoB (ApoB; Treatment 2 weeks) of the same compound?
The ApoB was 137 mg/dL.

What about the “ApoB (% of before-treatment value)” value (ApoB; Treatment 2 weeks) of the same compound?
The value was 110%.

And the ApoB (ApoB; Treatment 4 weeks)?
Its ApoB is 113 mg/dL.

And the “ApoB (% of before-treatment value)” value (ApoB; Treatment 4 weeks)?
The value was 91%.

And the ApoA (ApoA; 1 month after treatment)?
Its ApoA is 184 mg/dL.

And the ApoA (ApoA; 2 months after treatment)?
Its ApoA is 166 mg/dL.

What about the “ApoA (% of before-treatment value)” value (ApoA; 2 months after treatment) of the same compound?
Its value is 106%.

And the ApoA (ApoA; 3 months after treatment)?
Its ApoA is 179 mg/dL.

What about the ApoA (ApoA; Treatment 2 weeks) of the same compound?
The ApoA was 157 mg/dL.

And the “ApoA (% of before-treatment value)” value (ApoA; Treatment 2 weeks)?
The value was 99%.

And the ApoA (ApoA; Treatment 4 weeks)?
The ApoA was 151 mg/dL.

What about the “ApoA (% of before-treatment value)” value (ApoA; Treatment 4 weeks) of the same compound?
Its value is 96%.

And the LDL cholesterol (LDL cholesterol; 1 month after treatment)?
The LDL cholesterol was 44 mg/dL.

What about the LDL cholesterol (LDL cholesterol; 2 months after treatment) of the same compound?
Its LDL cholesterol is 38 mg/dL.

What about the “LDL cholesterol (% of before-treatment value)” value (LDL cholesterol; 2 months after treatment) of the same compound?
Its value is 103%.

And the LDL cholesterol (LDL cholesterol; 3 months after treatment)?
Its LDL cholesterol is 43 mg/dL.

And the LDL cholesterol (LDL cholesterol; Treatment 2 weeks)?
Its LDL cholesterol is 41 mg/dL.

And the LDL cholesterol (LDL cholesterol; Treatment 4 weeks)?
The LDL cholesterol was 41 mg/dL.

From patent publication US20070072814A1, “Method and means of modulating lipid metabolism” (priority 2003, published 2007)
